Results reported in the supplement of paper PMC10307832.

Assays:
Assay in all cases: relative viability (nuclei count vs DMSO), 5 days (fraction); higher = more cells survive
[1] = compound: CS(=O)(=O)c1ccc(-c2cnc(N)c(C(=O)Nc3ccccc3)n2)cc1 [VE-821] + CCNC(=O)c1noc(-c2cc(C(C)C)c(O)cc2O)c1-c1ccc(CN2CCOCC2)cc1 [Luminespib] (partner 0.01 µM)
Method in brief: (§1)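 Relative viability equals treated-well nuclei counts divided by vehicle-well nuclei counts. Counts came from 4× images of lung cancer cell lines grown in 1536-well plates for 5 days after pin-tool dosing on the day after seeding. Dosing used one drug alone or a fixed anchor-drug dose plus five library-drug doses (not always all listed) in √10 steps, and values are medians of duplicate plates.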

[2] = compound: CS(=O)(=O)c1ccc(-c2cnc(N)c(C(=O)Nc3ccccc3)n2)cc1 [VE-821] + CS(=O)(=O)CCNCc1ccc(-c2ccc3ncnc(Nc4ccc(OCc5cccc(F)c5)c(Cl)c4)c3c2)o1 [Lapatinib] (partner 2 µM)
Method in brief: as §1

[3] = compound: CS(=O)(=O)c1ccc(-c2cnc(N)c(C(=O)Nc3ccccc3)n2)cc1 [VE-821] + NC(=O)Nc1cc(-c2cccc(F)c2)sc1C(=O)N[C@H]1CCCNC1 [AZD7762] (partner 0.2 µM)
Method in brief: as §1

[4] = compound: N#CC[C@H](C1CCCC1)n1cc(-c2ncnc3[nH]ccc23)cn1 [Ruxolitinib] + CS(=O)(=O)N1CCN(Cc2cc3nc(-c4cccc5[nH]ncc45)nc(N4CCOCC4)c3s2)CC1 [Pictilisib] (partner 1 µM)
Method in brief: as §1

| Cell Line | relative viability ([1]; first compound 0.08 µM) | relative viability ([1]; first compound 0.253 µM) | relative viability ([1]; first compound 0.8 µM) | relative viability ([1]; first compound 2.53 µM) | relative viability ([1]; first compound 8 µM) | relative viability ([2]; first compound 0.08 µM) | relative viability ([2]; first compound 0.253 µM) | relative viability ([2]; first compound 0.8 µM) | relative viability ([2]; first compound 2.53 µM) | relative viability ([2]; first compound 8 µM) | relative viability ([3]; first compound 0.08 µM) | relative viability ([3]; first compound 0.253 µM) | relative viability ([3]; first compound 0.8 µM) | relative viability ([3]; first compound 2.53 µM) | relative viability ([3]; first compound 8 µM) | relative viability ([4]; first compound 0.253 µM) | relative viability ([4]; first compound 0.8 µM) | relative viability ([4]; first compound 2.53 µM) | relative viability ([4]; first compound 8 µM) | relative viability ([4]; first compound 0.08 µM) |
| --- | --- | --- | --- | --- | --- | --- | --- | --- | --- | --- | --- | --- | --- | --- | --- | --- | --- | --- | --- | --- |
| NCI-H650 | 0.986 | 0.94 | 0.662 | 0.883 | 0.798 | 0.887 | 0.929 | 0.903 | 0.957 | 0.982 | 0.873 | 0.954 | 0.992 | 0.836 | 1.04 | 0.881 | 1.21 | 0.699 | 0.649 | – |
| NCI-H2087 | 0.133 | 0.176 | 0.206 | 0.144 | 0.131 | 0.987 | 1.12 | 1.13 | 1.26 | 1.02 | 1.6 | 1.08 | 1.12 | 1.04 | 0.66 | 0.937 | 0.645 | 0.335 | 0.842 | 0.798 |
| NCI-H596 | 0.978 | 1.09 | 1 | 1.03 | 0.738 | 1.06 | 0.87 | 1.12 | 1.26 | 1 | 1.03 | 0.918 | 0.915 | 0.961 | 0.787 | 0.339 | 0.387 | 0.418 | 0.386 | 0.379 |
| LC-2-ad | 1.18 | 1.09 | 1.19 | 1.24 | 1 | 1.06 | 1.01 | 1.08 | 1.07 | 0.963 | 0.882 | 0.818 | 0.862 | 0.848 | 0.689 | 0.313 | 0.519 | 0.362 | 0.211 | 0.41 |
